The results in this text go back to PubChem BioAssay AID2384 (Southern Research Specialized Biocontainment Screening …, 2010).

As a reminder, the IC50 is the point on the concentration scale where inhibition reaches its midpoint.

In this experiment the test system is S. typhi GFP reporter counter-screen, fluorescence, 4 h. Briefly: inhibitors in S. typhi counter-screen strain, dose response, counter-screen for PhoP regulon inhibitor project, fluorescence, 4 h (AID 2384). In general terms: The purpose of a counterscreen is to sort out artefacts and off-target activity.

Several values for one entry are separate records, joined by “and”; a condition that tells them apart may be missing. Equal entries are not always repeated.

As to `Clc1cccc(/C=N\Nc2nccs2)c1`, the IC50 is 15.8 µM.

`CN(C)CCCN(C(=O)c1ccc2c(c1)CCCC2)c1nc2ccc(Cl)cc2s1`: the IC50 is 54.1 µM.

Turning to `COCCCNC(=S)NNC(=O)c1ccccn1`, the IC50 was 23.7 µM.

Regarding `Nc1c(Cl)ncnc1N/N=C/c1ccccn1`, the IC50 was 32.9 µM.

As for `Cc1cc(C(C)(C)CC(C)(C)C)ccc1OCCOCC[N+](C)(C)Cc1ccccc1`, the IC50 was 16.8 µM.

As for `C[C@H]1O[C@@H](n2cc(F)c(=O)[nH]c2=O)[C@H](O)[C@@H]1O`, the IC50 was 63.7 µM.

Turning to `CCCCOc1ccc(CSC(=N)N)cc1Cl`, the IC50 was 19.1 µM.

Turning to `c1cc2c(cc1C1CCCCC1)c1c3n2CCCNC3CCC1` (centres undefined), the IC50 is 20.3 µM.

Turning to `CN(C)c1ccc(/C=C/c2ccc3ccccc3[n+]2C)cc1`, the IC50 is 19.1 µM.

In the case of `Cc1ccc(C(=O)O)cc1N=Cc1cc(Br)cc(Br)c1O`, the IC50 is 16.7 µM.

With `CN(C)CCCN1c2ccccc2CCc2ccc(Cl)cc21`, the IC50 is 70.5 µM.

In the case of `CN1CCN(CCCN2c3ccccc3Sc3ccc(Cl)cc32)CC1`, the IC50 is 41.7 µM and 23.8 µM.

Regarding `COc1cccc(Nc2nc(NCCO)c3ccccc3n2)c1`, the IC50 was 57.8 µM.

`CC(C)(C)c1ccc(OCCCCCCN2CCNCC2)cc1`: the IC50 was 49.2 µM.

Consider `Cc1cc(C)c2nc(C)cc(N/N=C/c3ccc(O)cc3)c2c1`, for which the IC50 is 57.9 µM.

As for `CCn1cc(C(=O)O)c(=O)c2cc(F)c(N3CCN(C(=S)NC(=O)c4ccccc4)CC3)cc21`, the IC50 was 78.2 µM.

With `C[C@H]1c2cccc(O)c2C(O)=C2C(=O)[C@]3(O)C(O)=C(C(N)=O)C(=O)[C@@H](N(C)C)[C@@H]3[C@@H](O)[C@@H]21`, the IC50 is 1.56 µM.

Consider `Oc1cc(Cl)ccc1Oc1ccc(Cl)cc1Cl`, for which the IC50 was less than 0.55 µM.

As to `Cc1cc(C)n2nc(S(=O)(=O)Nc3c(Cl)cccc3Cl)nc2n1`, the IC50 was 49.7 µM.

On to `Cc1ccc2c(c1)sc(-c1ccc(N(C)C)cc1)[n+]2C`, for which the IC50 is 35.3 µM.

For the molecule `CCCCNC1=CC(=O)C(=O)c2ccccc21`, the IC50 is 72.8 µM.

Take `COC(=O)N/N=C/c1c[n+]([O-])c2ccccc2[n+]1[O-]`: the IC50 was 92.1 µM.

Regarding `Nc1cc(=O)[nH]c(=S)n1-c1cccc(C(F)(F)F)c1`, the IC50 is 145 µM.

On to `Cc1cc([N+](=O)[O-])nn1CC(=O)N/N=C/c1ccccc1O`, for which the IC50 was 35.3 µM.

As to `CC1CCC(C(C)C)C(OC(=O)Cn2c(-c3ccc(Br)cc3)[n+](C)c3ccccc32)C1` (centres undefined), the IC50 was 73.6 µM.

With `O=C(Nc1ccc(Cl)cc1)Nc1ccc2c(c1)N1CCN=C1S2`, the IC50 is 76.3 µM.

On to `COC(=O)C1=C(C)N(Cc2ccccc2)C(=NCc2cccc(C(F)(F)F)c2)N[C@H]1c1cccc(F)c1`, for which the IC50 is 35.3 µM.

Take `CCCCCCCCCn1c2c(c(=N)c3c1CCC3)CCC2`: the IC50 is 10.6 µM.

As to `CN1CCC(=C2c3ccccc3C=Cc3ccccc32)CC1`, the IC50 was 77.5 µM.

With `CCCCCCCCCCCCCCCCn1cc[n+](C)c1`, the IC50 was 34.8 µM.

As to `Cc1cc(/C=C\c2ccc3cc(N(C)C)ccc3[n+]2C)c(C)n1-c1ccccc1`, the IC50 is 21.7 µM.

On to `O=C(/C=C/c1ccccc1Cl)Nc1cccc(O)c1`, for which the IC50 is 49.8 µM.

Consider `Nc1nnnn1/N=C/c1cc([N+](=O)[O-])ccc1O`, for which the IC50 was 52.1 µM.

With `Cc1cc(Cl)c(OCCCNCc2ccccc2)c(Br)c1`, the half-inhibitory concentration (IC50) was 37.5 µM.

As for `O=C(CCN1Cc2ccccc2C1)c1ccc2c(c1)OCCO2`, the IC50 was 137 µM.

In the case of `Clc1cc(Br)ccc1OCCCNCc1ccccc1`, the IC50 was 39.3 µM.

Regarding `CC(NCc1ccc(-c2ccccc2)cc1)C(O)c1ccccc1` (centres undefined), the IC50 was 39 µM.

Take `Cc1cccc2sc(N(CCCN(C)C)C(=O)COc3ccc(Cl)cc3)nc12`: the IC50 was 37.6 µM.

For the molecule `O=C(CSc1nc2ccccc2s1)N/N=C/c1cc([N+](=O)[O-])ccc1O`, the IC50 is 60.8 µM.

For the molecule `[O-][n+]1c2c(c3c4non(O)c4ccc31)CCCC2`, the IC50 was 79.2 µM.

As for `CCN1CCN(CCCNC(=O)c2ccc(/C=C3/Sc4ccccc4N(Cc4ccccc4F)C3=O)cc2)CC1`, the concentration for half-maximal inhibition (IC50) is 85.4 µM.

Consider `CN(Cc1ccccc1)CC(O)COc1ccc(CNCCCOc2cccnc2)cc1` (centres undefined), for which the IC50 is 53.3 µM.

In the case of `Cc1nn(-c2cc(N3CCNCC3)ccc2[N+](=O)[O-])c(=O)c2ccccc12`, the IC50 was 141 µM.

With `Cc1ccc(C(=O)N/C(=C\c2ccc(-c3ccc(Cl)cc3)o2)C(=O)NCCCN(C)C)cc1`, the IC50 was 36.4 µM.

For `O=S1(=O)Nc2c(ccc3cccnc23)-c2ccccc21`, the IC50 is 3.32 µM.

Consider `N#C/C(=C\c1ccc(O)c(O)c1)C(=O)NCc1ccccc1`, for which the IC50 is 132 µM.

For `CCOc1ccc(Nc2c3ccccc3nc3ccccc23)cc1`, the IC50 is 19.6 µM.

`COc1ccc2c(c1OC)C(=O)N(c1ccc(C)cc1)C2=O`: the half-maximal inhibitory concentration (IC50) was 105 µM.

In the case of `CN1C(=O)N2CN(C3CCCCC3)CN3C(=O)N(C)C1C23` (centres undefined), the IC50 was 110 µM.

In the case of `COc1cc([N+](=O)[O-])cc(/C=N/NC(=O)c2cccnc2)c1O`, the IC50 was 76.1 µM.

`CCCCCCCCCCCCCCCC[n+]1ccc(/C=N/O)cc1`: the IC50 was 36.9 µM.

As to `CCn1nc(C(=O)O)c(=O)c2cc3c(cc21)OCO3`, the IC50 is 84.1 µM.

On to `COc1ccc(/C=N/Nc2cc(C)nc3c(C)cccc23)cc1`, for which the IC50 is 40.7 µM.

Turning to `COc1cc(/C=C2/C(=O)NN(c3ccc(C)c(Cl)c3)C2=O)cc([N+](=O)[O-])c1O`, the IC50 was 74.6 µM.

For `C[C@H]1COc2c(C3(N)CC3)c(F)cc3c(=O)c(C(=O)O)cn1c23`, the IC50 is 0.9 µM.

In the case of `CCOC(=O)c1ccccc1-n1c(C)cc(C2N=C(N)Nc3nc4ccccc4n32)c1C` (centres undefined), the IC50 is 39.4 µM.

For the molecule `CN(C)[C@@H]1C(=O)C(C(N)=O)=C(O)[C@@]2(O)C(=O)C3=C(O)c4c(O)cccc4[C@@](C)(O)C3[C@H](O)C12` (some centres undefined), the IC50 was 0.31 µM and 1.78 µM.

Turning to `C=CCNc1ncnc2c1[nH]c1ccc(C)cc12`, the IC50 is 111 µM.

As to `O=C(N/N=C/c1cc([N+](=O)[O-])ccc1O)C1CC1`, the IC50 is 20.2 µM.

For the molecule `O=C(NNC(=S)NC(=O)c1ccco1)c1ccc(F)cc1`, the IC50 is 130 µM.

Consider `O=c1[nH]cc(N=Cc2cc([N+](=O)[O-])ccc2O)c(=O)[nH]1`, for which the IC50 is 77.8 µM.

Regarding `CCN(CCNCC(O)COc1ccccc1C(C)C)c1cccc(C)c1` (centres undefined), the IC50 was 37.7 µM.

As for `Nc1cc2c3c(cccc3c1)C(=O)N(CCN1CCCC1)C2=O`, the IC50 is 129 µM.

As for `O=c1c2ccccc2nc(N/N=C/c2c(O)ccc3ccccc23)n1O`, the IC50 is 16.2 µM.

Take `Cc1cc(C)c(OCCCCNCc2ccccc2)c(Cl)c1`: the IC50 is 61.3 µM.

As for `C#CCOCCOCCOCCNc1nc(N2CCN(C(=O)[C@H](CCCCN)n3cc([C@@H](N)CO)nn3)CC2)nc(N2CCN(C(=O)[C@H](Cc3cc4ccccc4[nH]3)n3cc([C@@H](N)Cc4ccc(O)cc4)nn3)CC2)n1`, the IC50 is 93 µM.

As for `O=C(N/N=C/c1ccccc1O)c1ccncc1`, the IC50 was 20.5 µM.

`O=[N+]([O-])c1cccc(NNS(=O)(=O)c2ccccc2F)c1`: the IC50 is 18.5 µM.

For `CO/N=C(/C(=O)N[C@@H]1C(=O)N2C(C(=O)O)=CCS[C@H]12)c1cnc(N)s1`, the IC50 is 27 µM.

In the case of `Cc1cc([N+](=O)[O-])cc(/C=N/n2c(C)nc3ccccc3c2=O)c1O`, the IC50 was 78.1 µM.

As to `Cc1ccc(CNCCC2=CCCCC2)cc1`, the IC50 is 70.7 µM.

As to `CCCCCCCCCC[N+](C)(C)CC/C=C1/c2ccccc2Sc2ccc(Cl)cc21`, the IC50 was 14 µM.

Turning to `O=C(/C=C/c1ccco1)NC(=S)NNC(=O)c1ccco1`, the IC50 is 90.8 µM.

Regarding `Cn1c(SCC(=O)N/N=C/c2ccc([N+](=O)[O-])s2)nnc1-c1ccc(Cl)cc1`, the half-inhibitory concentration (IC50) is 46.2 µM.

For the molecule `Cc1occc1C(=O)N/N=C/C=C/c1ccccc1`, the IC50 was 97.1 µM.

Turning to `O=C(C[n+]1cnn(CC(=O)c2ccc(Cl)cc2Cl)c1)c1ccc([N+](=O)[O-])cc1`, the IC50 is 36.1 µM.

Consider `Nc1nc(F)nc2c1ncn2[C@@H]1O[C@H](CO)[C@@H](O)[C@H]1O`, for which the IC50 is 24.1 µM.

Take `O=C(/C=C/c1ccccc1)NC(=S)NNC(=O)c1cnccn1`: the IC50 is 20.9 µM.

Regarding `O=C(Cc1ccc([N+](=O)[O-])cc1)N/N=C/c1ccc([N+](=O)[O-])o1`, the IC50 is 20.9 µM.

In the case of `Cc1cccc(OCC(O)Cn2c(=N)n(CCN3CCCCC3)c3ccccc32)c1` (centres undefined), the half-inhibitory concentration (IC50) was 10.4 µM.

Regarding `CC1CCC(C(C)C)C(OC(=O)Cn2c(-c3ccc(Cl)cc3)[n+](C)c3ccccc32)C1` (centres undefined), the IC50 was 38.3 µM.

Turning to `CCn1cc(C(=O)O)c(=O)c2cc(F)c(N3CCN(C(=S)NC(=O)c4ccc(Br)cc4)CC3)cc21`, the IC50 is 56 µM.

Turning to `CCCCCCCCCCOC(=O)Cn1c(COc2cccc(C)c2)[n+](C)c2ccccc21`, the half-maximal inhibitory concentration (IC50) is 9.7 µM.

Regarding `COc1ccc(CNCCc2cccc(F)c2)c2ccccc12`, the IC50 was 61.2 µM.

With `Clc1ccc(CN2C3=NCCN3c3ccccc32)cc1`, the IC50 is 42.8 µM.

In the case of `Cc1cc(OCCCCCN2CCCC2)ccc1Cl`, the half-maximal inhibitory concentration (IC50) is 51 µM.

Take `CN1CCN(C2Cc3ccc(Cl)cc3Sc3ccc(F)cc32)CC1` (centres undefined): the IC50 is 19.9 µM.

Regarding `OC(CNCCc1ccc(Cl)cc1Cl)COc1ccccc1` (centres undefined), the IC50 was 37.3 µM.

With `CCN(CCC(=O)Nc1ccc(Br)c(C)c1)Cc1ccccc1`, the IC50 was 37.9 µM.

With `O=C(NC1CCCC1)c1ccc(Br)s1`, the IC50 is 49.5 µM.

With `C#CCOCCOCCOCCNc1nc(N2CCN(C(=O)CCCCCCCCCCNC(=O)Cn3cc(CCCCCN)nn3)CC2)nc(N2CCN(C(=O)CCCCCCCCCCNC(=O)[C@H]([C@@H](C)CC)n3cc(CCCCCN)nn3)CC2)n1`, the IC50 was 38.8 µM.

Regarding `CC[n+]1c(/C=C/N(C)c2ccccc2)n(-c2ccccc2)c2ccc(-c3nc4ccccc4s3)cc21`, the IC50 is 9.23 µM.

For the molecule `OC(CNCC1CCCO1)Cn1c2ccc(Cl)cc2c2cc(Cl)ccc21` (centres undefined), the IC50 was 23.7 µM.

Regarding `COc1ccc(/C=C/c2cc(-c3ccc(C)cc3)o[n+]2C)cc1`, the IC50 was 42.7 µM.

For `CCCCCNc1nc(N2CCCC2)c2c(c1C#N)CCN(C)C2`, the IC50 was 36.3 µM.

`C(=N/Nc1nccs1)/c1cccnc1`: the IC50 was 49.5 µM.

On to `CCOC(=O)N1CCN(Cc2cc(Cl)c3cccnc3c2O)CC1`, for which the IC50 is 47.4 µM.

Regarding `CCOC(=O)Cn1c(=N)n(CCOc2ccc3ccccc3c2)c2ccccc21`, the IC50 was 37.2 µM.

Turning to `c1ccc(CN2CCN(c3nc(NCc4ccco4)c4ccccc4n3)CC2)cc1`, the IC50 was 64.6 µM.
